pIC50: −log10 of the molar value. Read-outs that look alike come from different tables or passages of the source.
Key:
Cdk5/p25 = Cdk5/p25 (Homo sapiens, UniProt Q00535); assay: Cyclin-Dependent Kinase 5 (cdk5) Assay; type: biochemical
Protocol: Cyclin-Dependent Kinase 5 (cdk5) Assay
Enzyme assays for IC50 determinations and kinetic evaluation were performed in 96-well filter plates (Millipore MAPH NOB 10). […] All components except histone and ATP were added to wells, and the plate was placed on a shaker for 5 minutes. The reaction was started by adding histone and [^32P]ATP, and the plate was shaken at 30° C. for 45 minutes. The reaction was terminated by addition of 0.1 mL of 150 mM phosphoric acid. The plate was kept at 4° C. for 30 minutes to allow substrate to precipitate. The wells were then washed three times with 0.2 mL of 75 mM phosphoric acid and ^32P incorporation was determined with a beta plate counter (Wallac Inc, Gaithersburg, Md.).

cdk4/D = cdk4/D (Homo sapiens, UniProt P11802); assay: Cyclin-Dependent Kinase 4 (cdk4) Assay; type: biochemical
Sequence of cdk4/D (P11802 whole entry): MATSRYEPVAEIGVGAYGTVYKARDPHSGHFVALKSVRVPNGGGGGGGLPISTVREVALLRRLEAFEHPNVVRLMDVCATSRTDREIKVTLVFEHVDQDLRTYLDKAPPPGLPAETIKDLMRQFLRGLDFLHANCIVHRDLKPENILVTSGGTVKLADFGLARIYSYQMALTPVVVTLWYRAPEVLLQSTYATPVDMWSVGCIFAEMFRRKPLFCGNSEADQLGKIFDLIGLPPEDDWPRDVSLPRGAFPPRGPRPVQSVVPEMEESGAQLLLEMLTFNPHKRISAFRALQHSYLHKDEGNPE
Sequence of cdk4/D (P24385 whole entry, further chain): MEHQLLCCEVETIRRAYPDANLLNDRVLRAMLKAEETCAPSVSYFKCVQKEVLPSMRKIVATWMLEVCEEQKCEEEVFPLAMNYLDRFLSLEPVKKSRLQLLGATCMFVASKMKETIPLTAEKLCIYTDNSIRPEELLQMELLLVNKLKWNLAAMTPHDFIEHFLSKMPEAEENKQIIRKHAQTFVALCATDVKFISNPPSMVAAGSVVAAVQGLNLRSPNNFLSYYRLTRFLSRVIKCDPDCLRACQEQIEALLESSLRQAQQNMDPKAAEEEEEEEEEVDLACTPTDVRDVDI

cdc2/cyclinB = cdc2/cyclinB (Homo sapiens, UniProt P06493); assay: Cyclin-Dependent Kinase Assay cdc2/cyclinB
Sequence of cdc2/cyclinB (P06493 whole entry): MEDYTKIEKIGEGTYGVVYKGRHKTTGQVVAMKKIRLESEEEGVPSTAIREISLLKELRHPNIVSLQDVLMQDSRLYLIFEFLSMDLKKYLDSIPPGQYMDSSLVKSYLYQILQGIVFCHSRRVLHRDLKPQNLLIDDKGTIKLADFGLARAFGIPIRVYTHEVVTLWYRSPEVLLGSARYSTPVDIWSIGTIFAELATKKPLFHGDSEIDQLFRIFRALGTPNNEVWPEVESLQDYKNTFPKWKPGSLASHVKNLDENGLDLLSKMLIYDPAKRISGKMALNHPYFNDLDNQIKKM
Sequence of cdc2/cyclinB (P14635 whole entry, further chain): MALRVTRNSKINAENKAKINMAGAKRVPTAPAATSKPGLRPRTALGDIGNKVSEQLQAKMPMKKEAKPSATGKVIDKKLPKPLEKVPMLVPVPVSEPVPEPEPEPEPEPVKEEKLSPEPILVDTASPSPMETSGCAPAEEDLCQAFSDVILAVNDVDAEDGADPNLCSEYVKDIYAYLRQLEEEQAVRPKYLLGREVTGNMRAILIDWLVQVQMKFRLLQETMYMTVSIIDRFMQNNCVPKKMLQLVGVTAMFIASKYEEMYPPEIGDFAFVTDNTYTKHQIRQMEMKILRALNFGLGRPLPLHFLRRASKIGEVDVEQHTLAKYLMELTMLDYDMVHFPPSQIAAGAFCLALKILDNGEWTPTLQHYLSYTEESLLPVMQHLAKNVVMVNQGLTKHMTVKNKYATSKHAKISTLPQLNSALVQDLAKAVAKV

cdk2/cyclinE = cdk2/cyclinE (Homo sapiens, UniProt P24941); assay: Cyclin-Dependent Kinase Assay cdk2/cyclinE
cdk2/cyclinA = cdk2/cyclinA (Homo sapiens, UniProt P24941); assay: Cyclin-Dependent Kinase Assay cdk2/cyclinA

Row | Compound | melting point | pIC50 (Cdk5/p25; Table 1) | pIC50 (cdk4/D; Table 1, read-out: cdk4/D IC50) | also measured
1 | CC(C)Cn1c(=O)ccc2cnc(Nc3ccccc3)nc21 [Example 42, 8-Isobutyl-2-phenylamino-8H-pyrido[2,3-d]pyrimidin-7-one] | 170 to 171 °C | 7.82 | – | –
2 | CCn1c(=O)ccc2cnc(Nc3cccc(OC(F)(F)C(F)F)c3)nc21 [Example 54, 8-Ethyl-2-[3-(1,1,2,2-tetrafluoroethoxy)-phenylamino]-8H-pyrido[2,3-d]-pyrimidin-7-one] | 175 to 176 °C | 6.25 | – | –
3 | CCOC(=O)C=Cc1cnc(Nc2ccccc2)nc1N [Example 28, Ethyl 3-(4-Amino-2-phenylamino-pyrimidin-5-yl)acrylate] | 190 to 192 °C | – | – | pIC50 (cdk4/D; Table 2, Formula II compounds, read-out: cdk4 IC50): 4.19
4 | CCn1c(=O)ccc2cnc(Nc3ccc(N4CCN(C)CC4)cc3)nc21 [Example 53, 8-Ethyl-2-[4-(4-methylpiperazin-1-yl)-phenylamino]-8H-pyrido[2,3-d]-pyrimidin-7-one] | 185 to 186 °C | 6.62 | – | –
5 | O=c1ccc2cnc(Nc3ccccc3)nc2[nH]1 [Example 32, 2-Phenylamino-8H-pyrido[2,3-d]pyrimidin-7-one] | – | 5.84 | – | –
6 | CCn1c(=O)c(C)cc2cnc(Nc3ccccc3)nc21 [Example 83, 8-Ethyl-6-methyl-2-phenylamino-8H-pyrido[2,3-d]pyrimidin-7-one] | 178 to 180 °C | 6.23 | – | –
7 | O=c1ccc2cnc(Nc3ccccc3)nc2n1-c1ccccc1 [Example 101, 2-Phenylamino-8-phenyl-8H-pyrido[2,3-d]pyrimidin-7-one] | – | 6.78 | – | –
8 | CCn1c(=O)c(C)cc2cnc(Nc3ccc(N4CCN(C)CC4)cc3)nc21 [Example 84, 8-Ethyl-6-methyl-2-[4-(4-methyl-piperazin-1-yl)-phenylamino]-8H-pyrido[2,3-d]pyrimidin-7-one] | 198 to 200 °C | 6.12 | – | –
9 | COC(=O)Cn1c(=O)ccc2cnc(Nc3ccccc3)nc21 [Example 36] | 232 to 233 °C | – | 4.51 | –
10 | CCN1C(=O)CCc2cnc(Nc3ccccc3)nc21 [Example 69, 8-Ethyl-2-phenylamino-5,8-dihydro-6H-pyrido[2,3-d]pyrimidin-7-one] | 146 to 147 °C | 7.19 | – | –
11 | CN(C)CCCN1CCN(c2ccc(Nc3ncc4ccc(=O)n(C5CCCCC5)c4n3)cc2)CC1 [Example 144] | – | 7.40 | 7.80 | pIC50 (cdc2/cyclinB; read-out: cdk1/B IC50, Table 1): 6.46; pIC50 (cdk2/cyclinE; read-out: cdk2/E IC50, Table 1): 7.37; pIC50 (cdk2/cyclinA; read-out: cdk2/A IC50, Table 1): 6.99
12 | O=c1ccc2cnc(Nc3ccc(F)cc3)nc2n1C1CCCCC1 [Example 148, 8-Cyclohexyl-2-(4-fluoro-phenylamino)-8H-pyrido[2,3-d]pyrimidin-7-one] | 209 to 211 °C | – | 6.71 | pIC50 (cdc2/cyclinB): 5.74; pIC50 (cdk2/cyclinE; cdk2/E IC50, Table 1): 7.27; pIC50 (cdk2/cyclinA; cdk2/A IC50, Table 1): 7.11
13 | CC(C)n1c(=O)ccc2cnc(Nc3ccc(N4CCN(C)CC4)cc3)nc21 [Example 60, 8-Isopropyl-2-[4-(4-methylpiperazin-1-yl)-phenylamino]-8H-pyrido[2,3-d]-pyrimidin-7-one] | – | 7.77 | – | –
14 | 8-Isopropyl-2-(4-methoxy-phenylamino)-8H-pyrido[2,3-d]pyrimidin-7-one [Example 622] | – | – | – | pIC50 (Cdk5/p25; Table 3): 7.52; pIC50 (cdk4/D; Table 3, read-out: Cdk4 IC50): 5.39; pIC50 (cdk2/cyclinE; read-out: Cdk2/E IC50, Table 3): 6.27; pIC50 (cdk2/cyclinA; read-out: Cdk2/A IC50, Table 3): 6.41
15 | CCC(CC)n1c(=O)ccc2cnc(Nc3ccccc3)nc21 [R′=H, R″=H, R2=1-ethylpropyl, 8-(1-Ethylpropyl)-2-phenylamino-8H-pyrido[2,3-d]pyrimidin-7-one] | – | – | – | pIC50 (Cdk5/p25; Table 3): 8.06; pIC50 (cdk4/D; Table 3, read-out: Cdk4 IC50): 6.80; pIC50 (cdk2/cyclinE; Cdk2/E IC50, Table 3): 6.70; pIC50 (cdk2/cyclinA; Cdk2/A IC50, Table 3): 6.90
16 | CCNc1nc(Nc2ccccc2)ncc1C=CC#N [Example 72, 3-(4-Ethylamino-2-phenylamino-pyrimidin-5-yl)acrylonitrile] | 244 to 246 °C | – | – | –
17 | 8-Ethyl-2-(pyrimidin-4-ylamino)-8H-pyrido[2,3-d]pyrimidin-7-one [Example 50] | – | 7.57 | 5.70 | –
18 | CCN(CC)CCOc1ccc(Nc2ncc3ccc(=O)n(CCOCc4ccccc4)c3n2)cc1 [Example 139] | 95 to 97 °C | – | 5.54 | pIC50 (cdk2/cyclinE; cdk2/E IC50, Table 1): 5.58
19 | CC(C)n1c(=O)ccc2cnc(Nc3ccc(O)cc3)nc21 [Example 112, 2-(4-Hydroxy-phenylamino)-8-isopropyl-8H-pyrido[2,3-d]pyrimidin-7-one] | 226 to 228 °C | – | – | –
20 | O=c1ccc2cnc(NC3CCCCC3)nc2n1C1CCCCC1 [Example 153, 8-Cyclohexyl-2-cyclohexylamino-8H-pyrido[2,3-d]pyrimidin-7-one] | 169 to 170 °C | – | – | –
21 | CCC(C)n1c(=O)ccc2cnc(Nc3ccccc3)nc21 (stereo not shown) [Example 85, 8-sec-Butyl-2-phenylamino-8H-pyrido[2,3-d]pyrimidin-7-one] | 155 to 156 °C | – | – | –
22 | Cn1c(=O)ccc2cnc(N)nc21 [Example 62, 2-Amino-8-methyl-8H-pyrido[2,3-d]pyrimidin-7-one] | 237 to 253 °C | – | – | –

Second part, led by results:

Row | melting point | pIC50 (Cdk5/p25; Table 1) | pIC50 (cdk4/D; Table 1, read-out: cdk4/D IC50) | Compound | also measured
23 | 245 to 246 °C | – | 8.12 | O=c1ccc2cnc(Nc3ccc(N4CCC(CCN5CCOCC5)CC4)cc3)nc2n1C1CCCCC1 [Example 258] | pIC50 (cdc2/cyclinB): 6.22; pIC50 (cdk2/cyclinE; cdk2/E IC50, Table 1): 6.70; pIC50 (cdk2/cyclinA; cdk2/A IC50, Table 1): 7.13
24 | – | 6.46 | 6.49 | O=c1ccc2cnc(Nc3ccc(SC(F)(F)F)cc3)nc2n1C1CC2CCC1C2 (stereo not shown) [Example 221, 8-Bicyclo[2.2.1]hept-2-yl-2-(4-trifluoromethylsuffanyl-phenylamino)-8H-pyrido[2,3-d]pyrimidin-7-one] | pIC50 (cdc2/cyclinB; read-out: cdk1/B IC50, Table 1): 5.95; pIC50 (cdk2/cyclinE; read-out: cdk2/E IC50, Table 1): 6.29; pIC50 (cdk2/cyclinA; read-out: cdk2/A IC50, Table 1): 6.43
25 | – | 6.54 | 5.55 | O=c1ccc2cnc(Nc3ccc(N4CCCCC4)cc3)nc2n1[C@H]1C[C@H]2CC[C@@H]1C2 (relative stereo) [Example 229, 8-Dicyclo[2.2.1]hept-2-yl-2-(4-piperidin-1-yl-phenylamino)-8H-pyrido[2,3-d]pyrimidin-7-one] | pIC50 (cdc2/cyclinB): 6.36; pIC50 (cdk2/cyclinE; cdk2/E IC50, Table 1): 5.52; pIC50 (cdk2/cyclinA; cdk2/A IC50, Table 1): 6.00
26 | – | 7.49 | 8.52 | CC1CN(c2ccc(Nc3ncc4ccc(=O)n(C5CC6CCC5C6)c4n3)cc2)CC(C)N1 (stereo not shown) [Example 255] | pIC50 (cdc2/cyclinB; read-out: cdk1/B IC50, Table 1): 6.47; pIC50 (cdk2/cyclinE; read-out: cdk2/E IC50, Table 1): 6.91; pIC50 (cdk2/cyclinA; read-out: cdk2/A IC50, Table 1): 7.17
27 | – | 6.82 | 7.50 | O=c1ccc2cnc(Nc3ccc(N4CCCCC4)cc3)nc2n1C1CCCCCC1 [Example 163, 8-Cycloheptyl-2-(4-piperidin-1-yl-phenylamino)-8H-pyrido[2,3-d]primidin-7-one] | pIC50 (cdc2/cyclinB; read-out: cdk1/B IC50, Table 1): 6.19; pIC50 (cdk2/cyclinE; read-out: cdk2/E IC50, Table 1): 6.71; pIC50 (cdk2/cyclinA; read-out: cdk2/A IC50, Table 1): 7.18
28 | 181 to 182 °C | – | 6.66 | O=c1ccc2cnc(Nc3ccc(N4CCCCC4)cc3)nc2n1C1CCOC1 (racemic) [Example 200, 2-(4-Piperidin-1-yl-phenylamino)-8-(tetrahydro-furan-3-yl)-8H-pyrido[2,3-d]pyrimidin-7-one] | pIC50 (cdc2/cyclinB): 5.36; pIC50 (cdk2/cyclinE; cdk2/E IC50, Table 1): 5.72; pIC50 (cdk2/cyclinA; cdk2/A IC50, Table 1): 6.55
29 | 153 °C | – | – | CC(C)n1c(=O)ccc2cnc(N)nc21 [Example 257, 2-Amino-8-isopropyl-8H-pyrido[2,3-d]pyrimidin-7-one] | –
30 | 135 to 136 °C | – | – | O=c1ccc2cnc(Nc3ccc(N4CCCCC4CO)cc3)nc2n1C1CCCC1 (stereo not shown) [Example 207, 8-Cyclopentyl-2-[4-(2-hydroxymethyl-piperidin-1-yl)-phenylamino]-8H-pyrido[2,3-d]pyrimidin-7-one] | –
31 | 155 to 157 °C | – | – | O=c1ccc2cnc(Nc3ccc(N4CCCC(CN5CCOCC5)C4)cc3)nc2n1C1CC2CCC1C2 (stereo not shown) [Example 263, 8-Bicyclo[2.2.1]hept-2-yl-2-[4-(3-morpholin-4-ylmethyl-piperidin-1-yl)-phenylamino]-8H-pyrido[2,3-d]pyrimidin-7-one] | –
32 | 231 to 233 °C | – | – | CCOC(=O)N1CCC(n2c(=O)ccc3cnc(Nc4ccc(N5CCCCC5)cc4)nc32)CC1 [Example 246, 4-[7-Oxo-2-(4-piperidin-1-yl-phenylamino)-7H-pyrido[2,3-d]pyrimidin-8-yl]-piperidine-1-carboxylic acid ethyl ester] | –
33 | 223 to 224 °C | – | – | O=c1ccc2cnc(Nc3ccc(N4CCC(CCN5CCOCC5)CC4)cc3)nc2n1C1CC2CCC1C2 (stereo not shown) [Example 259, 8-Bicyclo[2.2.1]hept-2-yl-2-[4-[4-(2-morpholin-4-yl-ethyl)-piperidin-1-yl]-phenylamino]-8H-pyrido[2,3-d]pyrimidin-7-one] | –
34 | 195 to 196 °C | – | – | CC(C)n1c(=O)ccc2cnc(Nc3ccc(N4CCC(CCCN5CCOCC5)CC4)cc3)nc21 [Example 260, 8-Isopropyl-2-{4-[4-(3-morpholin-4-yl-propyl)-piperidin-1-yl]-phenylamino}-8H-pyrido[2,3-d]pyrimidin-7-one] | –
35 | – | 7.35 | 8.46 | O=c1ccc2cnc(Nc3ccc(N4CCCC(O)C4)cc3)nc2n1C1CC2CCC1C2 (stereo not shown) [Example 254] | pIC50 (cdc2/cyclinB): 6.76; pIC50 (cdk2/cyclinE; cdk2/E IC50, Table 1): 7.19; pIC50 (cdk2/cyclinA; cdk2/A IC50, Table 1): 7.55
